What was measured:
[1] = tested on: glandular part of the stomach; assay: acid-ethanol test (cytoprotective action, method of A. Robert); type: in vivo, rats; conditions: oral; for ED50: Rattus norvegicus, acid-ethanol test, starved rats, read-out: Cytoprotective effect ED50
From the text: Starved rats were given absolute ethanol containing concentrated hydrochloric acid which induced longitudinal bleedings in the glandular part of the stomach within a short time. This damaging effect is prevented by cytoprotective substances.
The oral ED50 values of some compounds according to the invention, which were examined in the acid-ethanol test, are shown in Table 1.

[2] = tested on: chronic stomach ulcer; assay: acetic acid-induced chronic stomach ulcer model (promoting the healing); type: in vivo, rats; conditions: for Ulcer index: ± S.E.M
Procedure: The investigation of (the effect promoting the healing of) the chronic stomach ulcer induced by acetic acid was carried out as follows. In the course of examining the healing-promoting effect, one of the most widely used methods namely, the so-called acetic acid-induced chronic stomach ulcer model was used [Takagi et. al.: Jap. […] The abdominal wall of anaesthetized rats was opened and 50 μl of a 20% acetic acid solution were injected into the stomach wall, then the abdominal wall of the animal was sutured. The treatment by the test compounds was started on day 5 following the surgical operation and continued until day 14 by using the daily doses shown in Table 2. Then, the animals were killed and their stomachs were examined. The extent of ulceration was assessed by measuring the diameter of the ulcer, wherefrom the size of the damaged area could be calculated. For characterizing the degree of the cicatrization, the change in the ulcer index measured in the treated animals was related to the values measured in the untreated (control) animals and expressed as percentage values.

[3] = oral toxicity; type: in vivo
[4] = 10 × 10 mg/kg/day p.o., Table 2
[5] = 10 × 10 mg/kg/day p.o., P <0.01 vs control (C only)
[6] = 50 × 10 mg/kg/day p.o., Table 3

Molecule: CCOC(=O)C[C@H](NC(=O)/C=C/C(=O)c1ccccc1)C(=O)OCC [A, diethyl N-[4-oxo-4-phenyl-2(E)-butenoyl]-(S)-aspartate]
- ED50 [1]: 3.8 mg/kg
- healing of the ulcer, result in words ([2]; 40 mg/kg oral dose, statement on Table 2): not promoted
- Change in the ulcer index related to the control (delaying of the healing) ([2]; 40 × 10 mg/kg/day p.o., Table 2): 11%
- Ulcer index ([2]; 40 × 10 mg/kg/day p.o.): 13.4 ± 2.1 mm^2 /stomach

Molecule: CCOC(=O)CC(NC(=O)/C=C/C(=O)c1ccccc1)C(=O)OCC (racemic) [B, diethyl N-[4-oxo-4-phenyl-2(E)-butenoyl]-(RS)-aspartate]
- ED50 [1]: 2.6 mg/kg
- Change in the ulcer index related to the control (promotion of the healing) [2, 4]: 34%
- Ulcer index [2, 5]: 7.7 ± 2.8 mm^2 /stomach
- Change in the ulcer index related to the control (promotion of the healing) ([2]; 30 × 10 mg/kg/day p.o., Table 2): 63%
- Ulcer index ([2]; 30 × 10 mg/kg/day p.o., P <0.01 vs control (B)): 4.2 ± 1.8 mm^2 /stomach
- difference between the healing-promoting effects of the R and RS modifications ([2]; statement on Table 2): highly significant difference

Molecule: CN/C(=N/CCSCc1nc[nH]c1C)NC#N [Cimetidine, reference compound]
- Change in the ulcer index related to the control (promotion of the healing) [2, 6]: 17%

Molecule: CCOC(=O)C[C@@H](NC(=O)/C=C/C(=O)c1ccccc1)C(=O)OCC [C, diethyl N-[4-oxo-4-phenyl-2(E)-butenoyl]-(R)-aspartate]
- ED50 [1]: 1.7 mg/kg
- cytoprotective test, comparison in words ([1]; statement on Table 1): most effective
- toxicity, oral dose of 1200 mg/kg [3]: not toxic
- healing of the ulcer accelerated ([2]; 3 mg/kg oral dose, statement on Table 2): 57%
- Change in the ulcer index related to the control (delaying of the healing) ([2]; 1 × 10 mg/kg/day p.o., Table 2): 13%
- Ulcer index ([2]; 1 × 10 mg/kg/day p.o.): 13.1 ± 3.5 mm^2 /stomach
- Change in the ulcer index related to the control (promotion of the healing) ([2]; 3 × 10 mg/kg/day p.o., Table 2): 57%
- Ulcer index ([2]; 3 × 10 mg/kg/day p.o., P <0.01 vs control): 5.0 ± 1.2 mm^2 /stomach
- Change in the ulcer index related to the control (promotion of the healing) [2, 4]: 77%
- Ulcer index [2, 5]: 2.7 ± 1.1 mm^2 /stomach
- healing-promoting effect compared with reference drugs ([2]; R isomer vs reference drugs of Table 3): greatly exceeds that of the reference drugs
- difference between the healing-promoting effects of the R and RS modifications ([2]; statement on Table 2): highly significant difference

Molecule: C[S+](C)CCC(N)C(=O)O (stereo not shown) [MMSC, Methylmethionine sulfonium chloride, reference compound]
- Change in the ulcer index related to the control (promotion of the healing) [2, 6]: 59%

Molecule: CC(=O)c1ccc2c(c1)C(=O)C1(CC1)O2 [Spizofuron, reference compound]
- Change in the ulcer index related to the control (promotion of the healing) [2, 6]: 11%

Molecule: NC[C@H]1CC[C@H](C(=O)Oc2ccc(CCC(=O)O)cc2)CC1 [Cetraxate, reference compound]
- Change in the ulcer index related to the control (promotion of the healing) ([2]; 150 × 10 mg/kg/day p.o., Table 3): 49%

Molecule: CN1CCN(CC(=O)N2c3ccccc3C(=O)Nc3cccnc32)CC1 [Pirenzepine, reference compound]
- Change in the ulcer index related to the control (promotion of the healing) ([2]; 12 × 10 mg/kg/day p.o., Table 3): 13%

Molecule: Sucralfate [reference compound]
- Change in the ulcer index related to the control (promotion of the healing) ([2]; 500 × 10 mg/kg/day p.o., Table 3): 55%

Reference: US4923888A, “Butenoic acid amides, their salts, and pharmaceutical compositions containing them” (Richter Gedeon Vegyeszeti Gyar RT, priority 1987, dated 1990)
